Laboratory results from the supplement of paper PMC7806825.
± gives the standard deviation of the averaged measurements.

System: McpC ligand-binding domain (Salmonella Typhimurium SL1344)
Assay: protein melting temperature (Tm) in presence of compound (degrees C); higher = more thermal stabilisation (possible ligand binding)
Details: compound stock concentration: 10-20 mM, 2 uL in 10 uL reaction

In the case of `OC[C@H]1O[C@@H]2O[C@H]3[C@H](O)[C@@H](O)[C@@H](O[C@H]4[C@H](O)[C@@H](O)[C@@H](O[C@H]5[C@H](O)[C@@H](O)[C@@H](O[C@H]6[C@H](O)[C@@H](O)[C@@H](O[C@H]7[C@H](O)[C@@H](O)[C@@H](O[C@H]8[C@H](O)[C@@H](O)[C@@H](O[C@H]9[C@H](O)[C@@H](O)[C@@H](O[C@H]1[C@H](O)[C@H]2O)O[C@@H]9CO)O[C@@H]8CO)O[C@@H]7CO)O[C@@H]6CO)O[C@@H]5CO)O[C@@H]4CO)O[C@@H]3CO` [g-Cyclodextrin], the protein melting temperature (Biolog plate: PM02A) is reported as 44.7.
`O=S(=O)(O)CCO` [2-Hydroxyethane Sulfonic acid] gave a protein melting temperature (Biolog plate: PM04A) of 44.6.
Compound `Nc1ncnc2c1ncn2[C@@H]1O[C@@H]2COP(=O)(O)O[C@H]2[C@H]1O` [Adenosine 3`,5`-Cyclic Monophosphate] has a protein melting temperature (Biolog plate: PM04A) of 43.9 and a protein melting temperature (Biolog plate: PM05) of 44.4.
For `C=C(OP(=O)(O)O)C(=O)O` [Phosphoenol Pyruvate], the protein melting temperature (Biolog plate: PM04A) was 43.9.
With `CC(O)CO` (stereo unspecified) [1,2-Propanediol] the protein melting temperature (Biolog plate: PM01) was 44.8.
With `C[C@@H](N)C(=O)O` [D-Alanine] the protein melting temperature (Biolog plate: PM01) was 43.9, the protein melting temperature (Biolog plate: PM03B) was 44.9 and the protein melting temperature (Biolog plate: PM05) was 44.
`O=[N+]([O-])O` [Nitrate] showed a protein melting temperature (Biolog plate: PM03B) of 46.
`N[C@H](CCC(=O)O)C(=O)O` [D-Glutamic acid] was tested, and the protein melting temperature (Biolog plate: PM03B) was 45 and the protein melting temperature (Biolog plate: PM05) was 44.8.
Work on `OC[C@H]1O[C@H](O[C@H]2O[C@H](CO)[C@@H](O)[C@H](O)[C@H]2O)[C@H](O)[C@@H](O)[C@@H]1O` [D-Trehalose] yielded a protein melting temperature (Biolog plate: PM01) of 43.9.
With `O=C(O)CP(=O)(O)O` [Phosphono Acetic acid] the protein melting temperature (Biolog plate: PM04A) was 44.
For `O=c1[nH]cnc2nc[nH]c12` [Hypoxanthine], the protein melting temperature (Biolog plate: PM05) was 44.
Compound `N[C@@H]1C(O)O[C@H](CO)[C@@H](O)[C@@H]1O` (stereo partly drawn) [D-Mannosamine] has a protein melting temperature (Biolog plate: PM03B) of 44.6.
`O=C(O)CC(=O)C(=O)O` [Oxaloacetic acid] was tested, and the protein melting temperature (Biolog plate: PM05) was 43.8.
Compound `C[C@H](N)C(=O)O` [L-Alanine] has a protein melting temperature (Biolog plate: PM01) of 44.8, a protein melting temperature (Biolog plate: PM03B) of 45.6 and a protein melting temperature (Biolog plate: PM05) of 44.9.
Work on `O=c1cc[nH]c(=O)[nH]1` [Uracil] yielded a protein melting temperature (Biolog plate: PM03B) of 45.7 and a protein melting temperature (Biolog plate: PM05) of 42.7.
In the case of `N[C@@H](CC(=O)O)C(=O)O` [L-Aspartic acid], the protein melting temperature (Biolog plate: PM01) is reported as 44.5, the protein melting temperature (Biolog plate: PM03B) is reported as 45.4 and the protein melting temperature (Biolog plate: PM05) is reported as 44.2.
In the case of `O=c1ccn([C@@H]2O[C@H](CO)[C@@H](O)[C@H]2OP(=O)(O)O)c(=O)[nH]1` [Uridine 2`-Monophosphate], the protein melting temperature (Biolog plate: PM04A) is reported as 43.8.
Work on `C[C@H](N)C(=O)NCC(=O)O` [Ala-Gly] yielded a protein melting temperature (Biolog plate: PM01) of 44.9 and a protein melting temperature (Biolog plate: PM03B) of 45.2.
Work on `O=C(O)C[C@H](O)C(=O)O` [L-Malic acid] yielded a protein melting temperature (Biolog plate: PM01) of 44.3.
Work on `N[C@H](CC(=O)O)C(=O)O` [D-Aspartic acid] yielded a protein melting temperature (Biolog plate: PM01) of 44.2, a protein melting temperature (Biolog plate: PM03B) of 44.9 and a protein melting temperature (Biolog plate: PM05) of 44.4.
Compound `O=C(CO)[C@@H](O)[C@H](O)[C@H](O)CO[C@H]1O[C@H](CO)[C@@H](O)[C@H](O)[C@H]1O` [Palatinose] has a protein melting temperature (Biolog plate: PM02A) of 44.
`O=C(O)c1cc(C(=O)O)c2c(n1)C(=O)C(=O)c1cc(C(=O)O)[nH]c1-2` [Pyrrolo-Quinoline Quinone] was tested, and the protein melting temperature (Biolog plate: PM05) was 43.
In the case of `NCCOP(=O)(O)O` [O-Phosphoryl-Ethanolamine], the protein melting temperature (Biolog plate: PM04A) is reported as 43.9.
`O=S(O)(O)=S` [Thiosulfate] gave a protein melting temperature (Biolog plate: PM04A) of 42.8.
`O=C[C@H](O)[C@@H](O)[C@H](O)[C@H](O)CO[C@@H]1O[C@H](CO)[C@@H](O)[C@H](O)[C@H]1O` [Gentiobiose] showed a protein melting temperature (Biolog plate: PM02A) of 44.5.
For `Nc1ncnc2c1ncn2[C@@H]1O[C@H](CO)[C@@H](O)[C@H]1O` [Adenosine], the protein melting temperature (Biolog plate: PM01) was 43.8, the protein melting temperature (Biolog plate: PM03B) was 45.4 and the protein melting temperature (Biolog plate: PM05) was 44.1.
`NCC(=O)N[C@@H](CCC(=O)O)C(=O)O` [Gly-Glu] gave a protein melting temperature (Biolog plate: PM01) of 44.9 and a protein melting temperature (Biolog plate: PM03B) of 45.1.
For `CCCC(=O)C(=O)O` [a-Keto-Valeric acid], the protein melting temperature (Biolog plate: PM02A) was 44.3.
Compound `Nc1[nH]cnc2ncnc1-2` [Adenine] has a protein melting temperature (Biolog plate: PM03B) of 45.2 and a protein melting temperature (Biolog plate: PM05) of 44.1.
Work on `O=C(O)c1ccc(O)cc1` [4-Hydroxybenzoic acid] yielded a protein melting temperature (Biolog plate: PM02A) of 43.3.
With `N#C[C@H](O[C@@H]1O[C@H](CO[C@@H]2O[C@H](CO)[C@@H](O)[C@H](O)[C@H]2O)[C@@H](O)[C@H](O)[C@H]1O)c1ccccc1` [Amygdalin] the protein melting temperature (Biolog plate: PM02A) was 44.3.
With `N[C@@H](CS(=O)O)C(=O)O` [L-Cysteine Sulfinic acid] the protein melting temperature (Biolog plate: PM04A) was 43.
`CC(=O)N[C@H]1C(O)O[C@H](CO)[C@H](O)[C@@H]1O` (stereo partly drawn) [N-Acetyl-D-Galactosamine] gave a protein melting temperature (Biolog plate: PM02A) of 44.6 and a protein melting temperature (Biolog plate: PM03B) of 44.6.
In the case of `O=S1(=O)CCCC1` [Tetramethylene Sulfone], the protein melting temperature (Biolog plate: PM04A) is reported as 44.3.
With `N[C@@H](Cc1ccc(OP(=O)(O)O)cc1)C(=O)O` [O-Phospho-L-Tyrosine] the protein melting temperature (Biolog plate: PM04A) was 43.7.
Compound `O=C(O)[C@H]1OC(O)[C@H](O)[C@@H](O)[C@H]1O` (stereo partly drawn) [D-Galacturonic acid] has a protein melting temperature (Biolog plate: PM01) of 44.4.
For `N=C(N)NCCC[C@H](N)C(=O)O` [L-Arginine], the protein melting temperature (Biolog plate: PM02A) was 44.2, the protein melting temperature (Biolog plate: PM03B) was 45.4 and the protein melting temperature (Biolog plate: PM05) was 44.6.
`Nc1ncnc2c1ncn2[C@@H]1O[C@H](COP(=O)(O)O)[C@@H](O)[C@H]1O` [Adenosine 5`-Monophosphate] gave a protein melting temperature (Biolog plate: PM04A) of 43.9.
With `O=C(CO)[C@@H](O)[C@@H](O)[C@H](O)CO` [D-Tagatose] the protein melting temperature (Biolog plate: PM02A) was 44.
`NC(=O)NCCC[C@H](N)C(=O)O` [L-Citrulline] was tested, and the protein melting temperature (Biolog plate: PM03B) was 44.8 and the protein melting temperature (Biolog plate: PM05) was 43.8.
Work on `Nc1ccn([C@@H]2O[C@H](CO)[C@@H](O)[C@H]2O)c(=O)n1` [Cytidine] yielded a protein melting temperature (Biolog plate: PM03B) of 44.7 and a protein melting temperature (Biolog plate: PM05) of 43.9.
`OC[C@@H](O)[C@@H](O)CO` [i-Erythritol] was tested, and the protein melting temperature (Biolog plate: PM02A) was 43.7.
`NC(=O)OP(=O)(O)O` [Carbamyl Phosphate] gave a protein melting temperature (Biolog plate: PM04A) of 44.7.
`Cc1cn([C@H]2C[C@H](O)[C@@H](CO)O2)c(=O)[nH]c1=O` [Thymidine] gave a protein melting temperature (Biolog plate: PM01) of 44.6, a protein melting temperature (Biolog plate: PM03B) of 45.1 and a protein melting temperature (Biolog plate: PM05) of 44.7.
`CC(O)C(C)O` (stereo unspecified) [2,3-Butanediol] gave a protein melting temperature (Biolog plate: PM02A) of 44.2.
In the case of `C/C=C/C=C/C(=O)O` [Sorbic acid], the protein melting temperature (Biolog plate: PM02A) is reported as 44.
Compound `CC[C@H](O)C(=O)O` [a-Hydroxybutyric acid] has a protein melting temperature (Biolog plate: PM01) of 44.6 and a protein melting temperature (Biolog plate: PM05) of 43.7.
Compound `O=C(O)[C@@H](O)[C@H](O)[C@H](O)[C@@H](O)C(=O)O` [Mucic acid] has a protein melting temperature (Biolog plate: PM01) of 43.7.
Work on `CC(=O)N[C@@H]1C(O)O[C@H](CO)[C@@H](O)[C@@H]1O` (stereo partly drawn) [N-Acetyl-D-Mannosamine] yielded a protein melting temperature (Biolog plate: PM01) of 44.8 and a protein melting temperature (Biolog plate: PM03B) of 45.5.
In the case of `Oc1nc(O)c2nc(O)[nH]c2n1` [Uric acid], the protein melting temperature (Biolog plate: PM03B) is reported as 44.4.
`CC(=O)CC(=O)O` [Acetoacetic acid] showed a protein melting temperature (Biolog plate: PM01) of 44.6.
For `OC[C@H]1O[C@H](OC[C@H]2OC(O)[C@H](O)[C@@H](O)[C@@H]2O)[C@H](O)[C@@H](O)[C@H]1O` (stereo partly drawn) [D-Melibiose], the protein melting temperature (Biolog plate: PM01) was 44.7.
Compound `O=P(O)(O)CP(=O)(O)O` [Methylene Diphosphonic acid] has a protein melting temperature (Biolog plate: PM04A) of 44.
For `OC[C@@H](O)[C@H](O)[C@H](O)[C@@H](O)CO` [Dulcitol], the protein melting temperature (Biolog plate: PM01) was 44.6.
`OC[C@H]1OC(O[C@H]2[C@H](O)[C@@H](O)C(O[C@H]3[C@H](O)[C@@H](O)[C@@H](O)O[C@@H]3CO)O[C@@H]2CO)[C@H](O)[C@@H](O)[C@@H]1O` (stereo partly specified) [Dextrin] showed a protein melting temperature (Biolog plate: PM02A) of 44.
`CC(C)[C@H](N)C(=O)O` [L-Valine] was tested, and the protein melting temperature (Biolog plate: PM02A) was 44.5, the protein melting temperature (Biolog plate: PM03B) was 45 and the protein melting temperature (Biolog plate: PM05) was 43.5.
For `NC(=O)NC1NC(=O)NC1=O` (stereo unspecified) [Allantoin], the protein melting temperature (Biolog plate: PM03B) was 44.2.
In the case of `OC[C@@H](O)[C@@H](O[C@@H]1O[C@H](CO)[C@H](O)[C@H](O)[C@H]1O)[C@H](O)[C@@H](O)CO` [D-Lactitol], the protein melting temperature (Biolog plate: PM02A) is reported as 44.7.
Compound `NCCCCN` [Putrescine] has a protein melting temperature (Biolog plate: PM02A) of 43.7, a protein melting temperature (Biolog plate: PM03B) of 44 and a protein melting temperature (Biolog plate: PM05) of 44.1.
`OC[C@H]1O[C@@H](S)[C@H](O)[C@@H](O)[C@@H]1O` [1-Thio-b-D-Glucose] showed a protein melting temperature (Biolog plate: PM04A) of 44.5.
In the case of `CCN` [Ethylamine], the protein melting temperature (Biolog plate: PM03B) is reported as 44.7.
`CC(=O)N[C@@H](CO)[C@@H](O)[C@H](O)[C@H](O)CO` [N-Acetyl-D-Glucosaminitol] gave a protein melting temperature (Biolog plate: PM02A) of 44.1.
Compound `CCCCCN` [N-Amylamine] has a protein melting temperature (Biolog plate: PM03B) of 44.9.
`CCC(=O)O` [Propionic acid] showed a protein melting temperature (Biolog plate: PM01) of 44.9.
Work on `OC[C@H]1OC(O)[C@@H](O)[C@@H](O)[C@@H]1O` (stereo partly drawn) [D-Mannose] yielded a protein melting temperature (Biolog plate: PM01) of 44.2.
With `CN` [Methylamine] the protein melting temperature (Biolog plate: PM03B) was 45.8.
With `OP(O)(=S)S` [Dithiophosphate] the protein melting temperature (Biolog plate: PM04A) was 43.6 ± 0.59.
With `CO[C@@H]1OC[C@@H](O)[C@H](O)[C@H]1O` [b-Methyl-D-Xyloside] the protein melting temperature (Biolog plate: PM02A) was 44.2.
Compound `Nc1nc2c(ncn2[C@@H]2O[C@H](CO)[C@@H](O)[C@H]2O)c(=O)[nH]1` [Guanosine] has a protein melting temperature (Biolog plate: PM03B) of 45.5 and a protein melting temperature (Biolog plate: PM05) of 44.5.
`CSCC[C@H](N)C(=O)N[C@@H](C)C(=O)O` [Met-Ala] showed a protein melting temperature (Biolog plate: PM03B) of 44.9.
Work on `O=C1O[C@H](CO)[C@@H](O)[C@H]1O` [D-Ribono-1,4-Lactone] yielded a protein melting temperature (Biolog plate: PM02A) of 44.4.
Compound `NCCP(=O)(O)O` [2-Aminoethyl Phosphonic acid] has a protein melting temperature (Biolog plate: PM04A) of 43.6.
Work on `OC[C@H]1O[C@H](OC[C@H]2O[C@H](O[C@H]3[C@H](O)[C@@H](O)[C@@H](O)O[C@@H]3CO)[C@H](O)[C@@H](O)[C@@H]2O[C@H]2O[C@H](CO)[C@@H](O)[C@H](O)[C@H]2O)[C@H](O)[C@@H](O)[C@@H]1O` [Glycogen] yielded a protein melting temperature (Biolog plate: PM02A) of 44.8.
Work on `N[C@@H](COP(=O)(O)O)C(=O)O` [O-Phospho-L-Serine] yielded a protein melting temperature (Biolog plate: PM04A) of 43.9.
With `O=C(O)Cc1cccc(O)c1` [m-Hydroxyphenyl Acetic acid] the protein melting temperature (Biolog plate: PM01) was 44.9.
For `O=C1NC(=O)C(=O)N1` [Parabanic acid], the protein melting temperature (Biolog plate: PM03B) was 44.
